Test results: patent US12599672B2, “KRAS proteolysis targeting chimeras” (PAQ Therapeutics Inc., priority 2023, dated 2026)

Legend:
Type in all cases: cell-based
KRAS G12D = target: T1, KRAS G12D (Homo sapiens, UniProt P01116, G12D); assay: KRAS G12D HiBit assay; settings: AsPc-1-KRAS (G12D)-HiBit-KI cell, compound treatment for 24 hours, absolute DC50; class symbols
T1 construct: AsPc-1-KRAS (G12D)-HiBit-KI cell (Pharmaron); host or cells: AsPc-1-KRAS (G12D)-HiBit-KI cells (HiBiT knock-in at the endogenous KRAS locus)
Outline: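 HiBiT luminescence, detected by adding lytic buffer, substrate and LgBiT protein, served as the KRAS G12D read-out. Compounds, serially diluted 3-fold over 10 points from 0.3 mM DMSO stock, were on cells for 24 h; percent inhibition normalized to cells given 0.1% DMSO only.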

KRAS G12V = target: T2, KRAS G12V (Homo sapiens, UniProt P01116, G12V); assay: KRAS G12V HiBit assay; settings: SW620-KRAS (G12V)-HiBit-KI cells, compound treatment for 24 hours, class symbols
T2 construct: SW620-KRAS (G12V)-HiBit-KI cell (Pharmaron); host or cells: SW620-KRAS (G12V)-HiBit-KI cells (HiBiT knock-in at the endogenous KRAS locus)
Outline: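 Luminescence from lytic Nano-Glo HiBiT detection with LgBiT read KRAS G12V levels after 24 h compound exposure. Dilutions were 10-point, 3-fold, from a 0.3 mM DMSO stock. Degradation activity was normalised to cells given 0.1% DMSO alone.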

KRAS = target: T3, KRAS (Homo sapiens, UniProt P01116); assay: KRASamp MSD assay; settings: KE39 (KRAS amplified) cells, treated with test compounds for 24 hr, MSD readout of KRAS degradation
T3 construct: endogenous in cells; host or cells: KE39 (KRAS amplified) cells
Outline: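 Degradation DC50 derived by curve fitting, with KRAS levels quantified by MSD electrochemiluminescence (capture/detection antibodies, recombinant WT KRAS standard). Lysates prepared from KE39 cells (KRAS amplified) exposed to test compounds for 24 hr.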

T1 sequence (P01116 1-188 isoform P01116-2 G12D): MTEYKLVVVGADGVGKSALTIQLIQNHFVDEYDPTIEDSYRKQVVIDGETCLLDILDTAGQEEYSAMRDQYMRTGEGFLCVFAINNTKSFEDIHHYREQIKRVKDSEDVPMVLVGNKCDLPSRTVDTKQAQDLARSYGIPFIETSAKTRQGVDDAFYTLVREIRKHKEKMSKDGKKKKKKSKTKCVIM
T2 sequence (P01116 1-188 isoform P01116-2 G12V): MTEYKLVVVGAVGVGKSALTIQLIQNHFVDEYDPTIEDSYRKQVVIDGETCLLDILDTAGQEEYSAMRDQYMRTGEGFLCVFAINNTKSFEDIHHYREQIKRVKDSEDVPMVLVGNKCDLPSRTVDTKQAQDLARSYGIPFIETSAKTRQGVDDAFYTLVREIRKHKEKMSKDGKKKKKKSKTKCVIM
T3 sequence (P01116 1-188 isoform P01116-2): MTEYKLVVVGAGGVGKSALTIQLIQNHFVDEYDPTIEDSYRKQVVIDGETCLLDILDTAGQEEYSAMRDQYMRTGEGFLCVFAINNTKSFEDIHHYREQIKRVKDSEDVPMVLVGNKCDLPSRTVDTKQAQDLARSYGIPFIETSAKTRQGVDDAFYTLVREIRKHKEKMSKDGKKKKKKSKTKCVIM

DC50 (KRAS G12D)	DC50 (KRAS G12V)	DC50 (KRAS)	SMILES
< 100 nM	10 to 100 nM	1 to 10 nM	CCc1c(F)ccc2cc(O)cc(-c3ncc4c(N5CCC[C@@](C)(O)C5)nc(OC[C@@]56CCCN5[C@H](COC(=O)N5CCC(CN7CCC(c8ccc9c(c8)n(C)c(=O)n9C8CCC(=O)NC8=O)C7)CC5)CC6)nc4c3F)c12 (stereo partly drawn) [Compound 435, ((3S,7aS)-7a-(((7-(8-ethyl-7-fluoro-3-hydroxynaphthalen-1-yl)-8-fluoro-4-((R)-3-hydroxy-3-methylpiperidin-1-yl)pyrido[4,3-d]pyrimidin-2-yl)oxy)methyl)hexahydro-1H-pyrrolizin-3-yl)methyl 4-((3-(1-(2,6-dioxopiperidin-3-yl)-3-methyl-2-oxo-2,3-dihydro-1H-benzo[d]imidazol-5-yl)pyrrolidin-1-yl)methyl)piperidine-1-carboxylate]
< 100 nM	< 10 nM	< 1 nM	CCc1c(F)ccc2cc(O)cc(-c3ncc4c(N5CCCOCC5)nc(OC[C@]56CCCN5[C@H](COC(=O)N5CCC(CN7CCC(c8ccc9c(c8)n(C)c(=O)n9C8CCC(=O)NC8=O)CC7)CC5)CC6)nc4c3F)c12 (stereo partly drawn) [Compound 423, ((3S,7aR)-7a-(((7-(8-ethyl-7-fluoro-3-hydroxynaphthalen-1-yl)-8-fluoro-4-(1,4-oxazepan-4-yl)pyrido[4,3-d]pyrimidin-2-yl)oxy)methyl)hexahydro-1H-pyrrolizin-3-yl)methyl 4-((4-(1-(2,6-dioxopiperidin-3-yl)-3-methyl-2-oxo-2,3-dihydro-1H-benzo[d]imidazol-5-yl)piperidin-1-yl)methyl)piperidine-1-carboxylate]
< 100 nM	< 10 nM	< 1 nM	CCc1c(F)ccc2cc(O)cc(-c3ncc4c(N5CCC[C@@](C)(O)C5)nc(OC[C@@]56CCCN5[C@H](COC(=O)N5CCC(OC7CCN(c8ccc9c(c8)n(C)c(=O)n9C8CCC(=O)NC8=O)CC7)CC5)CC6)nc4c3F)c12 (stereo partly drawn) [Compound 160, ((3S,7aS)-7a-(((7-(8-Ethyl-7-fluoro-3-hydroxynaphthalen-1-yl)-8-fluoro-4-((R)-3-hydroxyl-3-methylpiperidin-1-yl)pyrido[4,3-d]pyrimidin-2-yl)oxy)methyl)hexahydro-1H-pyrrolizin-3-yl)methyl 4-((1-(1-(2,6-dioxopiperidin-3-yl)-3-methyl-2-oxo-2,3-dihydro-1H-benzo[d]imidazol-5-yl)piperidin-4-yl)oxy)piperidine-1-carboxylate]
< 100 nM	< 10 nM	< 1 nM	CCc1c(F)ccc2cc(O)cc(-c3ncc4c(N5CCC[C@@](C)(O)C5)nc(OC[C@@]56CCCN5[C@H](COC(=O)N5CCC7(CC5)CC(N5CCC(c8ccc9c(c8)n(C)c(=O)n9C8CCC(=O)NC8=O)CC5)C7)CC6)nc4c3F)c12 (stereo partly drawn) [Compound 159, ((3S,7aS)-7a-(((7-(8-Ethyl-7-fluoro-3-hydroxynaphthalen-1-yl)-8-fluoro-4-((R)-3-hydroxy-3-methylpiperidin-1-yl)pyrido[4,3-d]pyrimidin-2-yl)oxy)methyl)hexahydro-1H-pyrrolizin-3-yl)methyl2-(4-(1-(2,6-dioxopiperidin-3-yl)-3-methyl-2-oxo-2,3-dihydro-1H-benzo[d]imidazol-5-yl)piperidin-1-yl)-7-azaspiro[3.5]nonane-7-carboxylate]
< 100 nM	10 to 100 nM	1 to 10 nM	CCc1c(F)ccc2cc(O)cc(-c3ncc4c(N5CCC[C@@](C)(O)C5)nc(OC[C@@]56CCCN5C(CN5CCC(OCCCc7ccc8c(c7)n(C)c(=O)n8C7CCC(=O)NC7=O)CC5)CC6)nc4c3F)c12 (stereo partly drawn) [Compound 384, 3-(5-(3-((1-(((35,7aS)-7a-(((7-(8-Ethyl-7-fluoro-3-hydroxynaphthalen-1-yl)-8-fluoro-4-((R)-3-hydroxy-3-methylpiperidin-1-yl)pyrido[4,3-d]pyrimidin-2-yl)oxy)methyl)hexahydro-1H-pyrrolizin-3-yl)methyl)piperidin-4-yl)oxy)propyl)-3-methyl-2-oxo-2,3-dihydro-1H-benzo[d]imidazol-1-yl) piperidine-2,6-dione]
< 100 nM	< 10 nM	1 to 10 nM	C#Cc1c(F)ccc2cc(O)cc(-c3ncc4c(N5CCC[C@@](C)(O)C5)nc(OC[C@@]56CCCN5[C@H](COC(=O)N5CCC(OCC#Cc7ccc8c(c7)n(C)c(=O)n8C7CCC(=O)NC7=O)CC5)CC6)nc4c3F)c12 (stereo partly drawn) [Compound 373, ((3S,7aS)-7a-(((7-(8-ethynyl-7-fluoro-3-hydroxynaphthalen-1-yl)-8-fluoro-4-((R)-3-hydroxy-3-methylpiperidin-1-yl)pyrido[4,3-d]pyrimidin-2-yl)oxy)methyl)hexahydro-1H-pyrrolizin-3-yl)methyl 4-((3-(1-(2,6-dioxopiperidin-3-yl)-3-methyl-2-oxo-2,3-dihydro-1H-benzo[d]imidazol-5-yl)prop-2-yn-1-yl)oxy)piperidine-1-carboxylate]
< 100 nM	< 10 nM	< 1 nM	CCc1c(F)ccc2cc(O)cc(-c3ncc4c(N5CCC[C@@](C)(O)C5)nc(OC[C@]56CCCN5[C@@H](COC(=O)N5CCC(CN7CCC(c8ccc9c(c8)n(C)c(=O)n9C8CCC(=O)NC8=O)CC7)CC5)CC6)nc4c3F)c12 (stereo partly drawn) [Compound 120, ((3R,7aR)-7a-(((7-(8-Ethyl-7-fluoro-3-hydroxynaphthalen-1-yl)-8-fluoro-4-((R)-3-hydroxyl-3-methylpiperidin-1-yl)pyrido[4,3-d]pyrimidin-2-yl)oxy)methyl)hexahydro-1H-pyrrolizin-3-yl)methyl4-((4-(1-(2,6-dioxopiperidin-3-yl)-3-methyl-2-oxo-2,3-dihydro-1H-benzo[d]imidazol-5-yl)piperidin-1-yl)methyl) piperidine-1-carboxylate]
< 100 nM	< 10 nM	< 1 nM	CCc1c(F)ccc2cc(O)cc(-c3ncc4c(N5CCC[C@@](C)(O)C5)nc(OC[C@]56CCCN5[C@H](COC(=O)N5CCC(CCOc7ccc8c(c7)n(C)c(=O)n8C7CCC(=O)NC7=O)CC5)CC6)nc4c3F)c12 (stereo partly drawn) [Compound 300, ((3S,7aR)-7a-(((7-(8-ethyl-7-fluoro-3-hydroxynaphthalen-1-yl)-8-fluoro-4-((R)-3-hydroxy-3-methylpiperidin-1-yl)pyrido[4,3-d]pyrimidin-2-yl)oxy)methyl)hexahydro-1H-pyrrolizin-3-yl)methyl 4-(2-((1-(2,6-dioxopiperidin-3-yl)-3-methyl-2-oxo-2,3-dihydro-1H-benzo[d]imidazol-5-yl)oxy)ethyl)piperidine-1-carboxylate]
< 100 nM	< 10 nM	≥ 10 nM	C#Cc1c(F)ccc2cc(O)cc(-c3ncc4c(N5CCC[C@@](C)(O)C5)nc(OCC5(CN6CCC(N7CCC(c8ccc9c(C%10CCC(=O)NC%10=O)nn(C)c9c8)CC7)CC6)CC5)nc4c3F)c12 (stereo partly drawn) [Compound 58]
